In US20060205677A1 (XenoPort, Inc., priority 2005, published 2006):

Key:
Type in all cases: cell-based, human
Calu-6 cells = experiment: In vitro cytotoxicity (Alamar blue growth inhibition), Calu-6; conditions: Calu-6, 48 h
Method: (§1) The effect of experimental compounds on cancer cell growth and viability was measured in a panel of human cancer cells grown in vitro. All cancer cell lines were obtained from the American […]. Cells were maintained in the following media: TUR, H69AR, Calu-6, ME180, and PC3 cells were grown in RPMI medium containing 4.5 g/L glucose, 10% FBS, 4 mM L-glutamine, and 1 mM sodium pyruvate); and HT29 cells were grown in DMEM with 4.5 g/L glucose, 10% FBS, and 6 mM L-glutamine. All cells were grown at 37° C. in 5% CO2 and passaged bi-weekly.
(§2) For cytoxicity studies, cells were seeded into 96-well clear-bottom microtiter plates at the following densities: TUR (7,500 cells/well), HT29 (5,000 cells/well), H69AR (10,000 cells/well), Calu-6 (15,000 cells/well), and ME180 (2,500 cells/well). Cells were maintained at 37° C. with 5% CO2 for 24 hours prior to addition of various experimental compounds. Each condition was measured in triplicate. For compounds dissolved in DMSO, the final DMSO concentration in each well and in the non-drug treated control cells was constant and below 1% in all studies. The number of viable cells was determined after 24, 48, and 72 hours using Alamar blue fluorescence. Briefly, Alamar blue (10 mM) was added to each well for 4 hours, and the number of viable cells estimated by measuring the fluorescence of reduced Alamar blue (530 nm excitation, 590 nm emission). To correct for background fluorescence, cells were treated with 100% DMSO to eliminate all viable cells. The effect of drug on cell growth was determined by calculating the fraction of live cells treated with drug compared to untreated cells: (F1drug treated−F1DMSO killed)/(F1untreated−F1DMSO killed).

H69AR cells = experiment: In vitro cytotoxicity (Alamar blue growth inhibition), H69AR; conditions: 48 h
Method: as §1, §2

HT29 cells = experiment: In vitro cytotoxicity (Alamar blue growth inhibition), HT29; conditions: HT29, 48 h
Method: as §1, §2

ME180 cells = experiment: In vitro cytotoxicity (Alamar blue growth inhibition), ME180; conditions: ME180, 48 h
Method: as §1, §2

PC3 cells = experiment: In vitro cytotoxicity (Alamar blue growth inhibition), PC3; conditions: PC3, 48 h
Method: as §1, §2

TUR cells = experiment: In vitro cytotoxicity (Alamar blue growth inhibition), TUR; conditions: 48 h
Method: as §1, §2

O=C(CCC1C(=O)[O][Pt]2([NH]C3CCCCC3[NH]2)[O]C1=O)NC1OC(CO)C(O)C(O)C1O [(42), [1R,2R-Cyclohexanediamine-N,N′][{2-(β-D-Galactopyranos-1-ylamido)ethyl}propanedioato(2-)-O,O′]Platinum (II)]
GI50 (Calu-6 cells): 131 µM
GI50 (H69AR cells): 188 µM
GI50 (HT29 cells): 860 µM
GI50 (ME180 cells): 4 µM
GI50 (PC3 cells): 45 µM
GI50 (TUR cells): 22 µM

O=C(CCC1C(=O)[O][Pt]2([NH]C3CCCCC3[NH]2)[O]C1=O)NC1OC(CO)C(O)C(O)C1O [(45), [1R,2R-Cyclohexanediamine-N,N′][{2-(β-D-Mannopyranos-1-ylamido)ethyl}propanedioato(2-)-O,O′]Platinum (II)]
GI50 (H69AR cells): 84 µM
GI50 (TUR cells): 28 µM

O=C(CCCC1C(=O)[O][Pt]2([NH]C3CCCCC3[NH]2)[O]C1=O)NC1OC(CO)C(O)C(O)C1O [(51), [1R,2R-Cyclohexanediamine-N,N′][{3-(β-D-Galactopyranos-1-ylamido)propyl}propanedioato(2-)-O,O′]Platinum (II)]
GI50 (Calu-6 cells): 255 µM
GI50 (H69AR cells): 286 µM
GI50 (HT29 cells): 374 µM
GI50 (ME180 cells): 5 µM
GI50 (PC3 cells): 84 µM
GI50 (TUR cells): 37 µM

N.N.O=C(CCCC1C(=O)[O][Pt][O]C1=O)NCC1OC(O)C(O)C(O)C1O [(60), [Diammine][{3-(α,β-D-Galactopyranos-6-ylamido)propyl}propanedioato(2-)-O,O′]Platinum (II)]
GI50 (H69AR cells): 79 µM
GI50 (TUR cells): 117 µM

O=C(CCCC1C(=O)[O][Pt]2([NH]C3CCCCC3[NH]2)[O]C1=O)NCC1OC(O)C(O)C(O)C1O [(66), [1R,2R-Cyclohexanediamine-N,N′][{3-(α,β-D-Glucopyranos-6-ylamido)propyl}propanedioato(2-)-O,O′]Platinum (II)]
GI50 (Calu-6 cells): 163 µM
GI50 (H69AR cells): 102 µM
GI50 (HT29 cells): 222 µM
GI50 (ME180 cells): 7 µM
GI50 (TUR cells): 15 µM

COC1OC(CNC(=O)CCCC2C(=O)[O][Pt]3([NH]C4CCCCC4[NH]3)[O]C2=O)C(O)C(O)C1O [(67), [1R, 2R-Cyclohexanediamine-N,N′][{3-(Methyl-α-D-Glucopyranos-6-ylamido)propyl}propanedioato(2-)-O,O′]Platinum (II)]
GI50 (Calu-6 cells): 68 µM
GI50 (H69AR cells): 185 µM
GI50 (HT29 cells): 234 µM
GI50 (ME180 cells): 5 µM
GI50 (TUR cells): 21 µM

O=C1[O][Pt]2([NH]C3CCCCC3[NH]2)[O]C(=O)C1CCNC(=O)C1OC(O)C(O)C(O)C1O [(74), [1R,2R-Cyclohexanediamine-N,N′][{2-(α,β-D-Glucuron-6-yl-amido)ethyl}propanedioato(2-)-O,O′]Platinum (II)]
GI50 (H69AR cells): 53 µM
GI50 (TUR cells): 53 µM

O=C1[O][Pt]2([NH]C3CCCCC3[NH]2)[O]C(=O)C1CCNC(=O)C1OC(O)C(O)C(O)C1O [(77), [1R, 2R-Cyclohexanediamine-N,N′][{2-(α,β-D-Galacturon-6-yl-amido)ethyl}propanedioato(2-)-O,O′]Platinum (II)]
GI50 (H69AR cells): 38 µM
GI50 (TUR cells): 38 µM

COC1OC(C(=O)NCCC2C(=O)[O][Pt]3([NH]C4CCCCC4[NH]3)[O]C2=O)C(O)C(O)C1O [(78), [1R,2R-Cyclohexanediamine-N,N′][{2-(Methyl-β-D-Glucuron-6-yl-amido)ethyl}propanedioato(2-)-O,O′]Platinum (II)]
GI50 (H69AR cells): 76 µM
GI50 (HT29 cells): 103 µM
GI50 (TUR cells): 15 µM

N.N.O=C(CCCC1C(=O)[O][Pt][O]C1=O)NC1C(O)OC(CO)C(O)C1O [(82), [Diammine][{3-(α,β-D-Glucopyranos-2-yl-amido)propyl}propanedioato(2-)-O,O′]Platinum (II)]
GI50 (Calu-6 cells): 300 µM
GI50 (H69AR cells): 112 µM
GI50 (HT29 cells): 800 µM
GI50 (ME180 cells): 11 µM
GI50 (PC3 cells): 133 µM
GI50 (TUR cells): 142 µM

O=C1[O][Pt]2([NH]C3CCCCC3[NH]2)[O]C(=O)C1CCCC1OC(CO)C(O)C(O)C1O [(83), [1R, 2R-Cyclohexanediamine-N,N′][{3-(α,β-D-Mannopyranos-1-yl)propyl}propanedioato(2-)-O,O′]Platinum (II)]
GI50 (Calu-6 cells): 155 µM
GI50 (H69AR cells): 163 µM
GI50 (HT29 cells): 117 µM
GI50 (ME180 cells): 10 µM
GI50 (PC3 cells): 100 µM
GI50 (TUR cells): 41 µM
